Experiments:
[1] = system: KCC2 double mutant Thr906A1a/Thr1007Ala; assay: 86Rb+ uptake assay in HEK293 cells; type: cell-based, human; conditions: n=3, p>0.05
Method: (§1) HEK293 cells were plated at 50-60% confluence of in 12-well plates (2.4-cm-diameter per/well) and transfected with wild-type or various mutant forms of full-length flag-tagged human KCCs. Each well of HEK293 cells was transfected with 2.5 μL of 1 mg/mL polyethylenimine and 1 μg of plasmid DNA. The ^86Rb^+-uptake assay was performed on cells at 36 hours post-transfection. Culture medium was aspirated from the wells and replaced with either isotonic or hypotonic medium for 15 min at 37° C., then for a further 15 min with stimulating medium containing additional 1 mM ouabain and 0.1 mM bumetanide, to prevent ^86Rb^+ uptake via the NKCC1 cotransporter. This stimulating medium was then removed and replaced with isotonic medium plus inhibitors containing 2 μCi/mL ^86Rb^+ for 10 min at 37° C., following which cells were rapidly washed three times with the respective ice-cold non-radioactive medium. The cells were lysed in 300 μL of ice-cold lysis buffer and ^86Rb^+ uptake was quantitated by liquid scintillation counting (PerkinElmer).
(§2) Referring to FIG. 8, ^86Rb^+ uptake assays in the presence of ZT-1a is shown. […] 10 min ^86Rb^+ uptake values were quantified by scintillation counting, normalized per mg protein for each condition and plotted for both isotonic and hypotonic conditions. Statistical significance was determined at p<0.05 (both panels).

wild type KCC2 = assay: 86Rb+ uptake assay in HEK293 cells; type: cell-based, human; conditions: n=3
Method: as §1, §2

[2] = ZT-1a content in brain and plasma, sham vs tMCAO mice, LC-MS/MS; type: in vivo, mouse; conditions: 2 hrs post-injection
Method: ZT-1a content in brain homogenates and plasma was assayed at the University of Pittsburgh Small Molecule Biomarker Core, using liquid chromatography-tandem mass spectrometry (LC-MS/MS). C57BL/6j mice (normotensive male, 11 weeks old) at 3 hr post Sham surgery or tMCAO were intraperitoneally injected with 5 mg/kg ZT-1a. At 2 hr post injection, blood was collected into heparin-treated EP tubes by a cardiac puncture. After a brief cardiac perfusion with ice-cold normal saline, brain tissues (contralateral and ipsilateral hemispheres) were collected. Plasma samples were prepared by centrifugation of whole blood for 10 min at 1,500 g using a refrigerated centrifuge. Brain tissues and plasma samples were diluted, and protein was precipitated with acetonitrile prior to detection of ZT-1a with a triple quad mass spectrometer. Glyburide was used as the internal standard. Samples were then injected by autosampler and ZT-1a was eluted from a Waters Acquity UPLC BEH C18, 1.7 um, 2.1×100 mm reversed-phase column with a water (with 0.1% formic acid) and acetonitrile (with 0.1% formic acid) gradient.

## Cc1cc(C(C#N)c2ccc(Cl)cc2)c(Cl)cc1NC(=O)c1cc(Cl)ccc1O (stereo not shown) [ZT-1a, 5-chloro-N-(5-chloro-4-((4-chlorophenyl)(cyano)methyl)-2-methylphenyl)-2-hydroxy-benzamide]
[1]
  increase of activity of KCC2 double mutant (86Rb+ uptake): 7±2%
Wild type KCC2
  activation of WT KCC2 (86Rb+ uptake): > 2.6 fold
[2]; 5 mg/kg i.p. at 3 hrs after tMCAO, n=10-11
  brain concentrations, stroke mice vs sham-controls: ~1.8 fold
[2]; 5 mg/kg i.p., p=0.29
  plasma bioavailability, sham control vs ischemic stroke mice: no significant difference

From US11414379B2, “SPAK kinase inhibitors as neuroprotective agents” (United States Government as represented by the Department …, priority 2018, dated 2022)
